pIC50: −log10 of the molar value.
Legend:
ErbB2 or EGFR = target: T1, ErbB2 or EGFR; experiment: ErbB family substrate phosphorylation enzyme assay (HTRF), Method A or Method B; assay type: biochemical; conditions: Method B: enzyme mix pre-incubated with compound 1 hour at 20° C., started with substrate mix
T1 construct: enzymes purified from a baculovirus expression system; Reagent production was conducted essentially as described in Brignola, P. S., et al, (2002) J. Biol. Chem. 277(2): 1576-1585
In short: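 Baculovirus-expressed EGFR or ErbB2 (0.8 or 10 nM in enzyme mix) phosphorylates biotinylated Peptide C with 20 µM ATP and 0.8 µM peptide (substrate-mix levels), MnCl2, pH 7.5. Reaction ran 90 min at 20 °C with EDTA stop and HTRF anti-phosphotyrosine read. Method A: enzyme added last; Method B: 1 h enzyme–compound preincubation.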

[1] = tested on: BT474 and HN5 tumor cell lines; experiment: Celltiter Glo growth inhibition assay (cellular Method B); assay type: cell-based; conditions: Homo sapiens, BT-474, 72 h, 3 days, read-out: Activity (Method): growth inhibition IC50 class
Description: (§1) Human breast tumor cells (BT474) were cultured in RPMI, (Invitrogen, 22400) containing 10% fetal bovine serum (FBS). Human head and neck tumor cells (HN5) were cultured in low glucose DMEM (Invitrogen, 12320) containing 10% FBS. Human colon tumor cells (Colo205) were cultured in DMEM (Invitrogen, 10564) containing 10% FBS. All cell lines were maintained at 37° C. in a humidified 5% CO2, 95% air incubator. Cells were harvested using trypsin/EDTA, counted using a haemocytometer, and plated in 30 microliters of the appropriate media described above, at the following densities, in a half area, black-walled, 96-well tissue culture plate (Corning 3882): BT474 3,000 cells/well, HN5 500 cells/well and Colo205 cells, 3,000 cells/well. The next day, compounds were diluted in DMEM containing […] gentamicin, from 10 mM stock solutions in DMSO. 30 microliters/well of these dilutions were added to the 30 microliters/well of media currently on the cell plates. Medium containing 0.6% DMSO was added to control wells. The final concentration of DMSO in all wells was 0.3%. Cells were incubated at 37° C., 5% CO2 for 3 days. Cell biomass was estimated using Celltiter Glo (Promega G7571). Briefly, plates were removed from the incubator and allowed to equilibrate to rt for 30 minutes. 60 microliters of Celltiter Glo reagent were added to each well of the treated cells and plates were shaken on an orbital plate shaker for 2 min. Plates were incubated without shaking for 30 more min and read in a luminometer with an integration time of 0.5 seconds per well. Percent inhibition of cell growth was calculated relative to vehicle treated control wells. Concentration of compound that inhibits 50% of vehicle control cell growth (IC50) was interpolated using nonlinear regression (Levenberg-Marquardt) and the equation, y=Vmax*(1−(x/(K+x)))+Y2, where “K” was equal to the IC50.

Colo205 tumor cell lines = experiment: Celltiter Glo growth inhibition assay (cellular Method B), Colo205; assay type: cell-based; conditions: Homo sapiens, COLO 205, 72 h, 3 days, read-out: Activity (Method): growth inhibition IC50 class
Description: as §1

Row | pIC50 [1] | pIC50 (Colo205 tumor cell lines) | SMILES | Activity (Method): pIC50 class against ErbB2 or EGFR (ErbB2 or EGFR)
1 | > 7.00 | > 7.00 | CS(=O)(=O)NCCOc1ccc(Nc2nccc(-c3c(-c4cccc(NC(=O)c5c(F)cccc5F)c4)nn4ccccc34)n2)cc1Cl [Example 163, N-{3-[3-(2-{[3-Chloro-4-({2-[(methylsulfonyl)amino]ethyl}-oxy)phenyl]amino}-4-pyrimidinyl)pyrazolo[1,5-a]pyridin-2-yl]phenyl}-2,6-difluorobenzamide] | +++ (B) (at least one pIC50 measurement of greater than 7 against either ErbB2 or EGFR)
2 | > 7.00 | < 6.00 | CN1CCN(CCCOc2ccc(Nc3nccc(-c4c(-c5cccc(NC(=O)c6c(F)cccc6F)c5)nn5ccccc45)n3)cc2Cl)CC1 [Example 164, N-[3-(3-{2-[(3-chloro-4-{[3-(4-methyl-1-piperazinyl)propyl]oxy}-phenyl)amino]-4-pyrimidinyl}pyrazolo[1,5-a]pyridin-2-yl)phenyl]-2,6-difluorobenzamide] | +++ (B) (at least one pIC50 measurement of greater than 7 against either ErbB2 or EGFR)
3 | > 7.00 | < 6.00 | CN(C)CCOc1cccc(Nc2nccc(-c3c(-c4cccc(NC(=O)c5c(F)cccc5F)c4)nn4cccc(F)c34)n2)c1 [Example 168, N-[3-(3-{2-[(3-{[2-(Dimethylamino)ethyl]oxy}phenyl)amino]-4-pyrimidinyl}-4-fluoropyrazolo[1,5-a]pyridin-2-yl)phenyl]-2,6-difluorobenzamide] | +++ (B) (at least one pIC50 measurement of greater than 7 against either ErbB2 or EGFR)
4 | > 7.00 | < 6.00 | CN1CCc2ccc(Nc3nccc(-c4c(-c5cccc(NC(=O)c6c(F)cccc6F)c5)nn5cccc(F)c45)n3)cc2C1 [Example 169, 2,6-Difluoro-N-[3-(4-fluoro-3-{2-[(2-methyl-1,2,3,4-tetrahydro-7-isoquinolinyl)amino]-4-pyrimidinyl}pyrazolo[1,5-a]pyridin-2-yl)phenyl]benzamide] | +++ (B) (at least one pIC50 measurement of greater than 7 against either ErbB2 or EGFR)
5 | 6.00 to 7.00 | < 6.00 | O=C(Nc1cccc(-c2nn3cccc(F)c3c2-c2ccnc(Nc3cccc(CN4CCCC4)c3)n2)c1)c1c(F)cccc1F [Example 170, 2,6-Difluoro-N-{3-[4-fluoro-3-(2-{[3-(1-pyrrolidinylmethyl)-phenyl]amino}-4-pyrimidinyl)pyrazolo[1,5-a]pyridin-2-yl]phenyl}benzamide] | +++ (B) (at least one pIC50 measurement of greater than 7 against either ErbB2 or EGFR)
6 | > 7.00 | < 6.00 | CN(C)CCOc1cccc(Nc2nccc(-c3c(-c4cccc(NC(=O)c5c(F)cccc5F)c4)nn4cc(F)ccc34)n2)c1 [Example 171, N-[3-(3-{2-[(3-{[2-(Dimethylamino)ethyl]oxy}phenyl)amino]-4-pyrimidinyl}-6-fluoropyrazolo[1,5-a]pyridin-2-yl)phenyl]-2,6-difluorobenzamide] | +++ (B) (at least one pIC50 measurement of greater than 7 against either ErbB2 or EGFR)
7 | > 7.00 | < 6.00 | O=C(Nc1cccc(-c2nn3cc(F)ccc3c2-c2ccnc(Nc3cccc(CN4CCCC4)c3)n2)c1)c1c(F)cccc1F [Example 172, 2,6-Difluoro-N-{3-[6-fluoro-3-(2-{[3-(1-pyrrolidinylmethyl)phenyl]amino}-4-pyrimidinyl)pyrazolo[1,5-a]pyridin-2-yl]phenyl}benzamide] | +++ (B) (at least one pIC50 measurement of greater than 7 against either ErbB2 or EGFR)
8 | > 7.00 | < 6.00 | CN1CCc2ccc(Nc3nccc(-c4c(-c5cccc(NC(=O)c6c(F)cccc6F)c5)nn5cc(F)ccc45)n3)cc2C1 [Example 173, 2,6-Difluoro-N-[3-(6-fluoro-3-{2-[(2-methyl-1,2,3,4-tetrahydro-7-isoquinolinyl)amino]-4-pyrimidinyl}pyrazolo[1,5-a]pyridin-2-yl)phenyl]benzamide] | +++ (B) (at least one pIC50 measurement of greater than 7 against either ErbB2 or EGFR)
9 | 6.00 to 7.00 | < 6.00 | CN(C)c1cccc2c(-c3ccnc(Nc4cccc(F)c4)n3)c(-c3cccc(NC(=O)c4c(F)cccc4F)c3)nn12.O=C(O)C(F)(F)F [Example 175, N-[3-(7-(Dimethylamino)-3-{2-[(3-fluorophenyl)amino]-4-pyrimidinyl}pyrazolo[1,5-a]pyridin-2-yl)phenyl]-2,6-difluorobenzamide trifluoroacetate] | +++ (B) (at least one pIC50 measurement of greater than 7 against either ErbB2 or EGFR)
10 | > 7.00 | < 6.00 | NCc1cccc(Nc2nccc(-c3c(-c4cccc(NC(=O)c5c(F)cccc5F)c4)nn4ccccc34)n2)c1 [Example 180, N-{3-[3-(2-{[3-(Aminomethyl)phenyl]amino}-4-pyrimidinyl)pyrazolo[1,5-a]pyridin-2-yl]phenyl}-2,6-difluorobenzamide] | +++ (B) (at least one pIC50 measurement of greater than 7 against either ErbB2 or EGFR)
11 | > 7.00 | 6.00 to 7.00 | CN(C)C1Cc2ccc(Nc3nccc(-c4c(-c5ccc(F)c(NC(=O)c6c(F)cccc6F)c5)nn5ccccc45)n3)cc2C1.O=C(O)C(F)(F)F (stereo not drawn) [Example 181, N-{5-[3-(2-{[2-(Dimethylamino)-2,3-dihydro-1H-inden-5-yl]amino}-4-pyrimidinyl)pyrazolo[1,5-a]pyridin-2-yl]-2-fluorophenyl}-2,6-difluorobenzamide] | +++ (B) (at least one pIC50 measurement of greater than 7 against either ErbB2 or EGFR)
12 | > 7.00 | 6.00 to 7.00 | CN(C)CCOc1cccc(Nc2nccc(-c3c(-c4ccc(F)c(NC(=O)c5c(F)cccc5F)c4)nn4ccccc34)n2)c1 [Example 182, N-[5-(3-{2-[(3-{[2-(Dimethylamino)ethyl]oxy}phenyl)amino]-4-pyrimidinyl}pyrazolo[1,5-a]pyridin-2-yl)-2-fluorophenyl]-2,6-difluorobenzamide] | +++ (B) (at least one pIC50 measurement of greater than 7 against either ErbB2 or EGFR)
13 | > 7.00 | < 6.00 | CNCc1cccc(Nc2nccc(-c3c(-c4cccc(NC(=O)c5c(F)cccc5F)c4)nn4ccccc34)n2)c1 [Example 183, 2,6-Difluoro-N-(3-{3-[2-({3-[(methylamino)methyl]phenyl}amino)-4-pyrimidinyl]pyrazolo[1,5-a]pyridin-2-yl}phenyl)benzamide] | +++ (B) (at least one pIC50 measurement of greater than 7 against either ErbB2 or EGFR)
14 | > 7.00 | < 6.00 | NCc1cccc(Nc2nccc(-c3c(-c4cccc(NC(=O)c5cc(F)ccc5F)c4)nn4ccccc34)n2)c1 [Example 184, N-{3-[3-(2-{[3-(Aminomethyl)phenyl]amino}-4-pyrimidinyl)pyrazolo[1,5-a]pyridin-2-yl]phenyl}-2,5-difluorobenzamide] | +++ B) (at least one pIC50 measurement of greater than 7 against either ErbB2 or EGFR)
15 | > 7.00 | < 6.00 | CN(C)CCNCc1cccc(Nc2nccc(-c3c(-c4cccc(NC(=O)c5c(F)cccc5F)c4)nn4ccccc34)n2)c1 [Example 185, N-{3-[3-(2-{[3-({[2-(Dimethylamino)ethyl]amino}methyl)phenyl]-amino}-4-pyrimidinyl)pyrazolo[1,5-a]pyridin-2-yl]phenyl}-2,6-difluorobenzamide] | +++ (B) (at least one pIC50 measurement of greater than 7 against either ErbB2 or EGFR)

Row | SMILES | pIC50 [1] | pIC50 (Colo205 tumor cell lines) | Activity (Method): pIC50 class against ErbB2 or EGFR (ErbB2 or EGFR)
16 | COc1ccc(Nc2nccc(-c3c(-c4cccc(NC(=O)c5c(F)cccc5F)c4)nn4ccccc34)n2)cc1OCCCN(C)C.O=CO [Example 165, N-{3-[3-(2-{[3-{[3-(Dimethylamino)propyl]oxy}-4-(methyloxy)-phenyl]amino}-4-pyrimidinyl)pyrazolo[1,5-a]pyridin-2-yl]phenyl}-2,6-difluorobenzamide formic acid salt] | > 7.00 | < 6.00 | +++ (B) (at least one pIC50 measurement of greater than 7 against either ErbB2 or EGFR)

Source: US7812022B2 (GlaxoSmithKline LLC, priority 2004, dated 2010)
